The values that follow come from US10004701B2, “Methods and compositions for treating infection” (UNIVERSITY OF ROCHESTER, priority 2012, dated 2018).

Molecules are shown by their SMILES. Where a name gives a salt, the structure may show the parent alone. Read-outs that look alike come from different tables or passages of the source.

What all share (test): AK assay 384-well format, Prestwick library screening
One test has as its system E. faecium. Format: cell-based, Enterococcus faecium. The conditions noted are these: for fold induction at 50 µM: Enterococcus faecium, 3 h.
The test system of test [1] is A. baumannii strain 98-37-09. Type of test: cell-based, Acinetobacter baumannii. The conditions noted are these: for fold induction at 50 µM: Acinetobacter baumannii, 983709, 3 h.
Test [2] has as its system S. aureus strain USA300-0114. Type of test: cell-based, Staphylococcus aureus. The conditions noted are these: for fold induction at 50 µM: Staphylococcus aureus, USA300, 3 h.
A further test deals with K. pneumoniae. Type of test: cell-based, Klebsiella pneumoniae. The settings on record: for fold induction at 50 µM: Klebsiella pneumoniae, 3 h.
A further test deals with E. coli. Format: cell-based, Escherichia coli. The conditions noted are these: 50 μM final drug concentration; for fold induction at 50 µM: Escherichia coli, 3 h.
For the next test, the system named is E. cloacae. Type of test: cell-based, Enterobacter cloacae. The conditions noted are these: for fold induction at 50 µM: Enterobacter cloacae, 3 h.
The next test has as its system P. aeruginosa. Format: cell-based, Pseudomonas aeruginosa. The settings on record: for fold induction at 50 µM: Pseudomonas aeruginosa, 3 h.
[3] abbreviates: planktonic E. faecium, 50 μM final drug concentration, 384-well, cutoff for positive-scoring molecules 3-fold increase, read-out: AK-based Prestwick Library Screening Results: E. faecium (increase in extracellular AK activity).
[4] abbreviates: planktonic A. baumannii, 50 μM final drug concentration, 384-well, cutoff for positive-scoring molecules 3-fold increase, read-out: AK-based Prestwick Library Screening Results: A. baumannii (increase in extracellular AK activity).
Where [5] appears, read: planktonic S. aureus, 50 μM final drug concentration, 384-well, cutoff for positive-scoring molecules 3-fold increase, read-out: AK-based Prestwick Library Screening Results: S. aureus (increase in extracellular AK activity).
[6] abbreviates: planktonic K. pneumoniae, 50 μM final drug concentration, 384-well, cutoff for positive-scoring molecules 3-fold increase, read-out: AK-based Prestwick Library Screening Results: K. pneumoniae (increase in extracellular AK activity).
Setting [7] is: planktonic E. coli, 384-well, cutoff for positive-scoring molecules 3-fold increase, read-out: AK-based Prestwick Library Screening Results: E. coli (increase in extracellular AK activity).
Setting [8] is: planktonic E. cloacae, 50 μM final drug concentration, 384-well, cutoff for positive-scoring molecules 3-fold increase, read-out: AK-based Prestwick Library Screening Results: E. cloacae (increase in extracellular AK activity).
Where [9] appears, read: planktonic P. aeruginosa, 50 μM final drug concentration, 384-well, cutoff for positive-scoring molecules 3-fold increase, read-out: AK-based Prestwick Library Screening Results: P. aeruginosa (increase in extracellular AK activity).
[10] abbreviates: 50 μM final drug concentration, cutoff for positive-scoring molecules 3-fold increase.

`NC(Cn1ccc(=O)c(O)c1)C(=O)O` (stereo not drawn) [Mimosine]: the fold induction at 50 µM in the test on E. faecium (50 μM final drug concentration, planktonic, cutoff for positive 3-fold increase, read-out: AK-based Prestwick Library Screening Results, E. faecium (fold increase in extracellular AK activity)) turned out to be 1; in test [1] (50 μM final drug concentration, planktonic, cutoff for positive 3-fold increase, read-out: AK-based Prestwick Library Screening Results, A. baumannii (fold increase in extracellular AK activity)), 0.9; in test [2] (50 μM final drug concentration, planktonic, cutoff for positive 3-fold increase, read-out: AK-based Prestwick Library Screening Results, S. aureus (fold increase in extracellular AK activity)), 1.4; in the test on K. pneumoniae (50 μM final drug concentration, planktonic, cutoff for positive 3-fold increase, read-out: AK-based Prestwick Library Screening Results, K. pneumoniae (fold increase in extracellular AK activity)), 0.9; in the test with E. coli (planktonic, cutoff for positive 3-fold increase, read-out: AK-based Prestwick Library Screening Results, E. coli (fold increase in extracellular AK activity)), 1; in the test with E. cloacae (50 μM final drug concentration, planktonic, cutoff for positive 3-fold increase, read-out: AK-based Prestwick Library Screening Results, E. cloacae (fold increase in extracellular AK activity)) it was 1.5. Besides, in the test with P. aeruginosa (50 μM final drug concentration, planktonic, cutoff for positive 3-fold increase, read-out: AK-based Prestwick Library Screening Results, P. aeruginosa (fold increase in extracellular AK activity)), the fold induction at 50 µM was determined as 1.1.

On to `Cc1cccc(N(C)C(=S)Oc2ccc3ccccc3c2)c1` [Tolnaftate], for which the fold induction at 50 µM in the test with E. faecium (setting [3]) is 1; in test [1] (setting [4]), 1.5; in test [2] (setting [5]), 1.3; with K. pneumoniae (setting [6]), 0.9; in the test with E. coli (setting [7]) it was 1.1; with E. cloacae (setting [8]) it was 1.2. In addition, the fold induction at 50 µM with P. aeruginosa (setting [9]) turned out to be 1.

Turning to `C[N+]1(C)CCC(=C(c2ccccc2)c2ccccc2)CC1` [Diphemanil methylsulfate], the fold induction at 50 µM was determined as 1.1 in the test on E. faecium (planktonic E. faecium, 50 μM final drug concentration, 384-well, […], read-out: AK-based Prestwick Library Screening Results: E. faecium (increase in extracellular AK activity)); 1.3 in test [1] (planktonic A. baumannii, 50 μM final drug concentration, 384-well, […], read-out: AK-based Prestwick Library Screening Results: A. baumannii (increase in extracellular AK activity)); 1.5 in test [2] (planktonic S. aureus, 50 μM final drug concentration, 384-well, […], read-out: AK-based Prestwick Library Screening Results: S. aureus (increase in extracellular AK activity)); 1.1 in the test with K. pneumoniae (planktonic K. pneumoniae, 50 μM final drug concentration, 384-well, […], read-out: AK-based Prestwick Library Screening Results: K. pneumoniae (increase in extracellular AK activity)); 1.2 in the test on E. coli (planktonic E. coli, 384-well, […], read-out: AK-based Prestwick Library Screening Results: E. coli (increase in extracellular AK activity)); 1.6 in the test on E. cloacae (planktonic E. cloacae, 50 μM final drug concentration, 384-well, […], read-out: AK-based Prestwick Library Screening Results: E. cloacae (increase in extracellular AK activity)). Besides, the fold induction at 50 µM with P. aeruginosa (planktonic P. aeruginosa, 50 μM final drug concentration, 384-well, […], read-out: AK-based Prestwick Library Screening Results: P. aeruginosa (increase in extracellular AK activity)) came out at 1.

For the compound `CCOC(=O)NNc1nncc2ccccc12` [Todralazine hydrochloride], the fold induction at 50 µM in the test with E. faecium (setting [3]) is 0.8; in test [1] (setting [4]), 1.1; in test [2] (setting [5]), 1.3; in the test on K. pneumoniae (setting [6]), 1; in the test on E. coli (setting [7]) it was 1.3; in the test with E. cloacae (setting [8]), 1.7. In the test on P. aeruginosa (setting [9]), the fold induction at 50 µM was 1.1.

In the case of `C[C@@H]1NC(=O)NC1=O` [Methylhydantoin-5-(L)], the “AK-based Prestwick Library Screening Results, E. faecium (fold increase in extracellular AK activity)” value in the test with E. faecium (setting [10]) is reported as 1.1. Besides, in test [1] (setting [10]), the “AK-based Prestwick Library Screening Results, A. baumannii (fold increase in extracellular AK activity)” value is on record as 1.0. The “AK-based Prestwick Library Screening Results, S. aureus (fold increase in extracellular AK activity)” value in test [2] (setting [10]) is recorded as 1.3. In addition, in the test with K. pneumoniae (setting [10]), the “AK-based Prestwick Library Screening Results, K. pneumoniae (fold increase in extracellular AK activity)” value is reported as 1.0. In addition, the “AK-based Prestwick Library Screening Results, E. coli (fold increase in extracellular AK activity)” value in the test on E. coli ([…]) came to 1.4. In addition, the “AK-based Prestwick Library Screening Results, E. cloacae (fold increase in extracellular AK activity)” value in the test with E. cloacae (setting [10]) is on record as 2.0. For the same compound, in the test with P. aeruginosa (setting [10]), the “AK-based Prestwick Library Screening Results, P. aeruginosa (fold increase in extracellular AK activity)” value was found to be 1.1.

In the case of `CCCCOc1cc(C(=O)OCCN(CC)CC)ccc1N` [Benoxinate hydrochloride], the fold induction at 50 µM in the test with E. faecium (setting [3]) was 0.9; in test [1] (setting [4]) it was 1.1; in test [2] (setting [5]) it was 1; in the test on K. pneumoniae (setting [6]), 1; in the test on E. coli (setting [7]), 1.3; with E. cloacae (setting [8]) it was 1.4. Besides, the fold induction at 50 µM with P. aeruginosa (setting [9]) worked out at 0.9.

In the case of `CN1C[C@H](CNC(=O)OCc2ccccc2)C[C@@H]2c3cccc4c3c(cn4C)C[C@H]21` [Metergoline], the fold induction at 50 µM in the test on E. faecium (planktonic E. faecium, 50 μM final drug concentration, cutoff for positive-scoring molecules 3-fold increase, read-out: AK-based Prestwick Library Screening Results, E. faecium (increase in extracellular AK activity)) came to 1; in test [1] (planktonic A. baumannii, 50 μM final drug concentration, cutoff for positive-scoring molecules 3-fold increase, read-out: AK-based Prestwick Library Screening Results, A. baumannii (increase in extracellular AK activity)), 1.3; in test [2] (planktonic S. aureus, 50 μM final drug concentration, cutoff for positive-scoring molecules 3-fold increase, read-out: AK-based Prestwick Library Screening Results, S. aureus (increase in extracellular AK activity)) it was 1.1; in the test on K. pneumoniae (planktonic K. pneumoniae, 50 μM final drug concentration, cutoff for positive-scoring molecules 3-fold increase, read-out: AK-based Prestwick Library Screening Results, K. pneumoniae (increase in extracellular AK activity)) it was 1; with E. coli (planktonic E. coli, cutoff for positive-scoring molecules 3-fold increase, read-out: AK-based Prestwick Library Screening Results, E. coli (increase in extracellular AK activity)) it was 1.2; in the test on E. cloacae (planktonic E. cloacae, 50 μM final drug concentration, cutoff for positive-scoring molecules 3-fold increase, read-out: AK-based Prestwick Library Screening Results, E. cloacae (increase in extracellular AK activity)), 1.3. Moreover, the fold induction at 50 µM with P. aeruginosa (planktonic P. aeruginosa, 50 μM final drug concentration, cutoff for positive-scoring molecules 3-fold increase, read-out: AK-based Prestwick Library Screening Results, P. aeruginosa (increase in extracellular AK activity)) stood at 1.1.

On to `CNC(C)CCC=C(C)C.CNC(C)CCC=C(C)C.O=C(O)[C@@H](O)[C@H](O)[C@H](O)[C@@H](O)C(=O)O` [Isometheptene mutate], for which the “AK-based Prestwick library screening result, E. faecium (fold increase in extracellular AK activity)” value in the test with E. faecium stood at 1.0. Besides, the “AK-based Prestwick library screening result, A. baumannii (fold increase in extracellular AK activity)” value in test [1] came to 1.5. For the same compound, the “AK-based Prestwick library screening result, S. aureus (fold increase in extracellular AK activity)” value in test [2] is recorded as 1.2. Also, the “AK-based Prestwick library screening result, K. pneumoniae (fold increase in extracellular AK activity)” value in the test with K. pneumoniae was 1.1. In addition, in the test on E. coli (planktonic E. coli, […]), the “AK-based Prestwick library screening result, E. coli (fold increase in extracellular AK activity)” value is reported as 1.2. Also, the “AK-based Prestwick library screening result, E. cloacae (fold increase in extracellular AK activity)” value in the test with E. cloacae stood at 1.2. In the test with P. aeruginosa, the “AK-based Prestwick library screening result, P. aeruginosa (fold increase in extracellular AK activity)” value was found to be 1.1.

With `NS(=O)(=O)c1cc2c(cc1Cl)NCNS2(=O)=O` [Hydrochlorothiazide], the fold induction at 50 µM was 1.1 with E. faecium (50 μM final drug concentration, 384-well format, cutoff for positive-scoring molecules 3-fold increase, read-out: AK-based Prestwick Library Screening Results, E. faecium (increase in extracellular AK activity)); 0.5 in test [1] (50 μM final drug concentration, 384-well format, cutoff for positive-scoring molecules 3-fold increase, read-out: AK-based Prestwick Library Screening Results, A. baumannii (increase in extracellular AK activity)); 0.5 in test [2] (50 μM final drug concentration, 384-well format, cutoff for positive-scoring molecules 3-fold increase, read-out: AK-based Prestwick Library Screening Results, S. aureus (increase in extracellular AK activity)); 0.6 with K. pneumoniae (50 μM final drug concentration, 384-well format, cutoff for positive-scoring molecules 3-fold increase, read-out: AK-based Prestwick Library Screening Results, K. pneumoniae (increase in extracellular AK activity)); 0.5 in the test on E. coli (384-well format, cutoff for positive-scoring molecules 3-fold increase, read-out: AK-based Prestwick Library Screening Results, E. coli (increase in extracellular AK activity)); 0.4 in the test with E. cloacae (50 μM final drug concentration, 384-well format, cutoff for positive-scoring molecules 3-fold increase, read-out: AK-based Prestwick Library Screening Results, E. cloacae (increase in extracellular AK activity)). For the same compound, in the test with P. aeruginosa (50 μM final drug concentration, 384-well format, cutoff for positive-scoring molecules 3-fold increase, read-out: AK-based Prestwick Library Screening Results, P. aeruginosa (increase in extracellular AK activity)), the fold induction at 50 µM amounted to 0.5.
